Assay results as given in article PMC3384240, “Related bifunctional restriction endonuclease-methyltransferase triplets: TspDTI, Tth111II/TthHB27I and TsoI with distinct specificities” (BMC Molecular Biology, 2012).

Biological target: T1, TspDTI (Thermus sp. DT, UniProt A8QN47)
T1 construct: recombinant from E. coli DH11S [pRZ-TspDTI], one extra Ala codon (GCG) after the start Met; native enzyme from Thermus sp; DT also purified; monomer; N-terminus […]
Test: lambda DNA cleavage, agarose gel
Type: biochemical
Settings: Mg2+ restriction buffer, 70 C, 30 min, allosteric activator (site not established)

T1 sequence (A8QN47 entry or part of it): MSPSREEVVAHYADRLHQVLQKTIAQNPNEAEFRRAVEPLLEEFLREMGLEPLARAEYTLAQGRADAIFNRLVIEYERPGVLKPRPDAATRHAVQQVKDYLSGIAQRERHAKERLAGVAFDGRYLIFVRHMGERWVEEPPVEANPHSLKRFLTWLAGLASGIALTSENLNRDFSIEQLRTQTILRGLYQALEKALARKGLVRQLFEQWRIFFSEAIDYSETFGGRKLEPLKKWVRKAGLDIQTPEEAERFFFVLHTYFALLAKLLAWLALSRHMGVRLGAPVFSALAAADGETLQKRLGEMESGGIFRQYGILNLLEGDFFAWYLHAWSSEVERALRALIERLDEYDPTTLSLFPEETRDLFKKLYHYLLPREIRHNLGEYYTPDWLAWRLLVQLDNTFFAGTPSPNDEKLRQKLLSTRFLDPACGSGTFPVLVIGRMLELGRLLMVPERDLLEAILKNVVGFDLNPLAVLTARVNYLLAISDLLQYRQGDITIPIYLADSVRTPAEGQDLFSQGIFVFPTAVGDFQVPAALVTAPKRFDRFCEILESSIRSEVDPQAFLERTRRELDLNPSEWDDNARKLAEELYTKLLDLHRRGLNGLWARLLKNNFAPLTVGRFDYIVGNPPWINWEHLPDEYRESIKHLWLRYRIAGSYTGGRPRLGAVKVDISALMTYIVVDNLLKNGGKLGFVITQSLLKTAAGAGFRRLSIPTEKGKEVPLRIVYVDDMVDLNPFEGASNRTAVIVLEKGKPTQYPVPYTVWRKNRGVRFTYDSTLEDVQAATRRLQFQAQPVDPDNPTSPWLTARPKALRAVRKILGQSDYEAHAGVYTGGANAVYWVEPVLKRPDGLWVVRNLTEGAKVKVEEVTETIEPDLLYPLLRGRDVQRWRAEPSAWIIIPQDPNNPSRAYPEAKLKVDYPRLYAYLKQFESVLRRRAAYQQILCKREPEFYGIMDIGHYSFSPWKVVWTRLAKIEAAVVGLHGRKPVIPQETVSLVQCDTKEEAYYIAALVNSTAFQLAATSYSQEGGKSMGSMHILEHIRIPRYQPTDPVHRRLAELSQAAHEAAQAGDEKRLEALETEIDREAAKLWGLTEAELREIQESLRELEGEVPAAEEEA

SMILES | lambda DNA cleavage, agarose gel (stimulates REase at 50 uM SIN, SAM analogue, not a methyl donor) | lambda DNA cleavage, agarose gel (stimulates REase at 50 uM SAM, also methyl donor of the MTase activity (200 uM))
Nc1ncnc2c1ncn2[C@@H]1O[C@H](C[C@@H](N)CC[C@H](N)C(=O)O)[C@@H](O)[C@H]1O [SIN] | is stimulated equally by both SAM and its analogue - SIN | –
C[S+](CC[C@H](N)C(=O)O)C[C@H]1O[C@@H](n2cnc3c(N)ncnc32)[C@H](O)[C@@H]1O (some centres unmarked) [SAM] | – | is stimulated equally by both SAM and its analogue - SIN
